Assay results from the supplement of paper PMC10627819.

How the values were obtained:
B. subtilis 168 [1] = experiment: fitness (endpoint OD595 vs no drug) (fraction); higher = more growth; details: one replicate, main component drawn
Method in brief: (§1)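 Volumes were 30 µl per well, or 55 µl for S. pneumoniae, in 384-well plates inoculated at OD595 0.01. Media were TSB, LB Lennox or CY at 37 °C, and OD595 was read every 30 min for 14 h with first-reading background subtraction. Fitness is the ratio of optical density at stationary-phase entry to the robust mean of no-drug controls. That ratio is capped at 1.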

S. pneumoniae D39V [2] = experiment: as above; details: main component drawn
Method in brief: as §1

B. subtilis 168 [3] = experiment: Bliss interaction score (quartile over a dose matrix) (fitness difference); higher = more antagonism (negative = synergy); details: main component drawn
Method in brief: (§2)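 Growth was read as OD595 when cultures entered stationary phase, and each value was divided by the plate's robust no-drug mean and capped at 1. This normalised ratio is the fitness value, and fitness for each single drug came from the combination data. The Bliss score subtracts the expected fitness, taken as the product, from the observed fitness and is given as quartiles across technical, biological and donor/recipient replicates.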

S. aureus DSM 20231 = experiment: as above; details: main component drawn
Method in brief: as §2

S. aureus Newman = experiment: as above; details: main component drawn
Method in brief: as §2

S. pneumoniae D39V [4] = experiment: as above; details: main component drawn
Method in brief: as §2
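For Bliss interaction score (quartile over a dose matrix) in this document: first quartile when negative (synergy) and third quartile when positive (antagonism).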

CCC[C@@H]1C[C@@H](C(=O)N[C@@H]([C@H]2O[C@H](SC)[C@H](O)[C@@H](O)[C@H]2O)[C@H](C)Cl)N(C)C1 [Clindamycin] + CCC(C)C1C(=O)NC(=C)C(=O)NC(C(=O)NC(CSCC(C(=O)N1)NC(=O)/C(=C/C)/NC(=O)C(C(C)CC)N)C(=O)NC2C(SCC(NC(=O)CNC(=O)C3CCCN3C2=O)C(=O)NC(CCCCN)C(=O)NC4C(SCC(NC(=O)CNC(=O)C(NC(=O)C(NC(=O)C(NC(=O)CNC4=O)C)CC(C)C)CCSC)C(=O)NC(CC(=O)N)C(=O)NC(CCSC)C(=O)NC(CCCCN)C(=O)NC5C(SCC6C(=O)NC(C(=O)NC(CSC(C(C(=O)N6)NC(=O)C(NC5=O)C)C)C(=O)NC(CO)C(=O)NC(C(C)CC)C(=O)NC(CC7=CN=CN7)C(=O)NC(C(C)C)C(=O)NC(=C)C(=O)NC(CCCCN)C(=O)O)CC8=CN=CN8)C)C)C)CC(C)C [Nisin]
Details | fitness
B. subtilis 168 [1], first compound 0.0039 µg/mL, partner 0.5 µg/mL | 0.985
B. subtilis 168 [1], first compound 0.0039 µg/mL, partner 1 µg/mL | 0.936
B. subtilis 168 [1], first compound 0.0039 µg/mL, partner 2 µg/mL | 0.855
B. subtilis 168 [1], first compound 0.0078 µg/mL, partner 0.5 µg/mL | 0.875
B. subtilis 168 [1], first compound 0.0078 µg/mL, partner 1 µg/mL | 0.847
B. subtilis 168 [1], first compound 0.0078 µg/mL, partner 2 µg/mL | 0.771
B. subtilis 168 [1], first compound 0.0156 µg/mL, partner 0.5 µg/mL | 0.858
B. subtilis 168 [1], first compound 0.0156 µg/mL, partner 1 µg/mL | 0.834
B. subtilis 168 [1], first compound 0.0156 µg/mL, partner 2 µg/mL | 0.742
B. subtilis 168 [1], first compound 0.0625 µg/mL, partner 0.5 µg/mL | 0.559
B. subtilis 168 [1], first compound 0.0625 µg/mL, partner 1 µg/mL | 0.565
B. subtilis 168 [1], first compound 0.0625 µg/mL, partner 1.25 µg/mL | 0.647
B. subtilis 168 [1], first compound 0.0625 µg/mL, partner 1.6 µg/mL | 0.455
B. subtilis 168 [1], first compound 0.0625 µg/mL, partner 2 µg/mL | 0.261
B. subtilis 168 [1], first compound 0.0625 µg/mL, partner 2.5 µg/mL | 0.564
B. subtilis 168 [1], first compound 0.0625 µg/mL, partner 3.2 µg/mL | 0.0252
B. subtilis 168 [1], first compound 0.0625 µg/mL, partner 4 µg/mL | 0.0334
B. subtilis 168 [1], first compound 0.0625 µg/mL, partner 5 µg/mL | 0.171
B. subtilis 168 [1], first compound 0.0625 µg/mL, partner 6.4 µg/mL | 0.0392
B. subtilis 168 [1], first compound 0.0625 µg/mL, partner 8 µg/mL | 0.0341
B. subtilis 168 [1], first compound 0.0625 µg/mL, partner 16 µg/mL | 0.0049
B. subtilis 168 [1], first compound 0.125 µg/mL, partner 0.5 µg/mL | 0.461
B. subtilis 168 [1], first compound 0.125 µg/mL, partner 1 µg/mL | 0.389
B. subtilis 168 [1], first compound 0.125 µg/mL, partner 1.25 µg/mL | 0.47
B. subtilis 168 [1], first compound 0.125 µg/mL, partner 1.6 µg/mL | 0.196
B. subtilis 168 [1], first compound 0.125 µg/mL, partner 2 µg/mL | 0.25
B. subtilis 168 [1], first compound 0.125 µg/mL, partner 2.5 µg/mL | 0.423
B. subtilis 168 [1], first compound 0.125 µg/mL, partner 3.2 µg/mL | 0.0383
B. subtilis 168 [1], first compound 0.125 µg/mL, partner 4 µg/mL | 0.0299
B. subtilis 168 [1], first compound 0.125 µg/mL, partner 5 µg/mL | 0.0548
B. subtilis 168 [1], first compound 0.125 µg/mL, partner 6.4 µg/mL | 0.0456
B. subtilis 168 [1], first compound 0.125 µg/mL, partner 8 µg/mL | 0.0157
B. subtilis 168 [1], first compound 0.125 µg/mL, partner 16 µg/mL | 0.0089
B. subtilis 168 [1], first compound 0.25 µg/mL, partner 0.5 µg/mL | 0.402
B. subtilis 168 [1], first compound 0.25 µg/mL, partner 1 µg/mL | 0.371
B. subtilis 168 [1], first compound 0.25 µg/mL, partner 1.25 µg/mL | 0.386
B. subtilis 168 [1], first compound 0.25 µg/mL, partner 1.6 µg/mL | 0.0539
B. subtilis 168 [1], first compound 0.25 µg/mL, partner 2 µg/mL | 0.0613
B. subtilis 168 [1], first compound 0.25 µg/mL, partner 2.5 µg/mL | 0.275
B. subtilis 168 [1], first compound 0.25 µg/mL, partner 3.2 µg/mL | 0.0454
B. subtilis 168 [1], first compound 0.25 µg/mL, partner 4 µg/mL | 0.0361
B. subtilis 168 [1], first compound 0.25 µg/mL, partner 5 µg/mL | 0.0507
B. subtilis 168 [1], first compound 0.25 µg/mL, partner 6.4 µg/mL | 0.0461
B. subtilis 168 [1], first compound 0.25 µg/mL, partner 8 µg/mL | 0.0269
B. subtilis 168 [1], first compound 0.25 µg/mL, partner 16 µg/mL | 0.0163
S. pneumoniae D39V [2], first compound 0.0125 µg/mL, partner 1.6 µg/mL | 0.0319
S. pneumoniae D39V [2], first compound 0.0125 µg/mL, partner 3.2 µg/mL | 0.0224
S. pneumoniae D39V [2], first compound 0.0125 µg/mL, partner 6.4 µg/mL | 0.0205
S. pneumoniae D39V [2], first compound 0.015 µg/mL, partner 0.4275 µg/mL | 0.923
S. pneumoniae D39V [2], first compound 0.015 µg/mL, partner 1.71 µg/mL | 0.11
S. pneumoniae D39V [2], first compound 0.025 µg/mL, partner 1.6 µg/mL | 0.0417
S. pneumoniae D39V [2], first compound 0.025 µg/mL, partner 3.2 µg/mL | 0.0389
S. pneumoniae D39V [2], first compound 0.025 µg/mL, partner 6.4 µg/mL | 0.0111
S. pneumoniae D39V [2], first compound 0.03 µg/mL, partner 0.4275 µg/mL | 0.774
S. pneumoniae D39V [2], first compound 0.03 µg/mL, partner 1.71 µg/mL | 0.0769
S. pneumoniae D39V [2], first compound 0.05 µg/mL, partner 1.6 µg/mL | 0.0221
S. pneumoniae D39V [2], first compound 0.05 µg/mL, partner 3.2 µg/mL | 0.0421
S. pneumoniae D39V [2], first compound 0.05 µg/mL, partner 6.4 µg/mL | 0.0305
S. pneumoniae D39V [2], first compound 0.06 µg/mL, partner 0.4275 µg/mL | 0.645
S. pneumoniae D39V [2], first compound 0.06 µg/mL, partner 0.855 µg/mL | 0.252
S. pneumoniae D39V [2], first compound 0.06 µg/mL, partner 1.71 µg/mL | 0.0778

Details | Bliss interaction score
B. subtilis 168 [3] | 0.0605
S. aureus DSM 20231 | 0.0292
S. aureus Newman | 0.0857
S. pneumoniae D39V [4] | -0.0351
